Measurements published in patent publication US20020035058A1, “Isopentenyl pyrophosphate isomerase (IPI) and/or prenyl transferase inhibitors” (The University of Sheffield, priority 1996, published 2002).
Where two headings read alike, the source gives them in different places.

Experiments:
[1] = molecular target: IPI (IPP isomerase) (Homo sapiens, UniProt Q13907); assay: Inhibition of IPI (IPP isomerase) by bisphosphonates; type: biochemical; details: concentration required to inhibit enzyme activity by 50%
[2] = test system: Rab6; assay: Immunoprecipitation of Rab6: geranylgeranylation of Rab6; type: cell-based; details: 41 h
[3] = molecular target: T1, squalene synthase (Rattus norvegicus, UniProt Q02769); details: cited from earlier work
T1 sequence (Q02769 1-416): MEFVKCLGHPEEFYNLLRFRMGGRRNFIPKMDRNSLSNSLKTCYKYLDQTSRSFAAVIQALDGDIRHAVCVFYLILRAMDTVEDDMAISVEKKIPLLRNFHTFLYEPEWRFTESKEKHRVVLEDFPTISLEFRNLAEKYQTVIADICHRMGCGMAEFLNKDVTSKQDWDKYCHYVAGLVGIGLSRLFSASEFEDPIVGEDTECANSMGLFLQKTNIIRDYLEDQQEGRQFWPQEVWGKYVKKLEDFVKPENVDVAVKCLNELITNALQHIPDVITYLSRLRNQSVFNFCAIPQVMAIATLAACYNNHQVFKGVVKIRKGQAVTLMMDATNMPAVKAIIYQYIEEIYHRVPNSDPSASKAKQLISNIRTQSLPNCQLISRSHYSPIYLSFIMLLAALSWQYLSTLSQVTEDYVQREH

[4] = test system: protein prenylation in J774 cells; assay: Protein prenylation: incorporation of mevalonate into proteins; type: cell-based; details: for incorporation of radiolabel (mevalonate) into protein bands: 100 μM, 24 h labelling period
[5] = test system: J774 macrophages; assay: Loss of total cell viability, MTT reduction; type: cell-based; details: for IC50: read-out: concentration causing 50% loss of total cell viability
[6] = test system: Ras; assay: Immunoprecipitation of Ras: farnesylation of Ras; type: cell-based; details: 41 h
[7] = test system: J774 macrophages; assay: Assessment of apoptosis in J774 macrophages (nuclear morphology, DNA fragmentation); type: cell-based; details: 10-100 μM

IPI (IPP isomerase), sequence (Q13907 whole entry): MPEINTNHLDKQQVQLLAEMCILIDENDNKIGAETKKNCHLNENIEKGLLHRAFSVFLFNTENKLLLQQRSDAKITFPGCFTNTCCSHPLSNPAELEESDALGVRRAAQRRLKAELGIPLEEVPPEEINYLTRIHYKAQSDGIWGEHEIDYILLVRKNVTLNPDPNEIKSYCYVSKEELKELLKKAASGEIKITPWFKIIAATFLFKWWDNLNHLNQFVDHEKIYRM

**Q.** Which IC50 [1] does the source give for NCCCC(O)(P(=O)(O)O)P(=O)(O)O [ALENDRONATE, alendronate] here?
**A.** Its IC50 is 75 nM.

**Q.** What about the “geranylgeranylated form of Rab6 after immunoprecipitation” value ([2]; 10 μM) of the same compound?
**A.** The value was “barely detectable”.

**Q.** What about the “inhibition of squalene synthase” value [3] of the same compound?
**A.** Its value is “not”.

**Q.** What about the “incorporation of radiolabel (mevalonate) into protein bands” value [4] of the same compound?
**A.** Its value is “markedly reduced”.

**Q.** And the “apoptosis and loss of cell viability with FPP or GGPP co-incubation” value ([5]; 100 μM alendronate + 200 μM FPP or GGPP)?
**A.** The value was “could be partially inhibited”.

**Q.** What about the IC50 ([5]; Mus musculus, J774 cells, after 48 h) of the same compound?
**A.** The IC50 was about 30000 nM.

**Q.** What about the “farnesylated form of Ras after immunoprecipitation” value ([6]; 100 μM) of the same compound?
**A.** Its value is “barely detectable”.

**Q.** What does the source list for CCCCCN(C)CCC(O)(P(=O)(O)O)P(=O)(O)O [IBANDRONATE, ibandronate]?
**A.** IC50 [1]: 35 nM; inhibition of squalene synthase [3]: potent inhibitors; incorporation of radiolabel (mevalonate) into protein bands [4]: markedly reduced

**Q.** Which IC50 [1] does the source give for O=P(O)(O)C(O)(Cc1cccnc1)P(=O)(O)O [RISEDRONATE, risedronate] here?
**A.** Its IC50 is 22 nM.

**Q.** And the IC50 ([5]; Mus musculus, J774, 48 h)?
**A.** The IC50 was about 3000 nM.

**Q.** What does the source list for O=P(O)(O)C(NC1CCCCCC1)P(=O)(O)O [YM175]?
**A.** IC50 [1]: 35 nM; inhibition of squalene synthase [3]: potent inhibitors; incorporation of radiolabel (mevalonate) into protein bands [4]: inhibited even more effectively

**Q.** With O=P(O)(O)C(Cl)(Cl)P(=O)(O)O [clodronate] as the compound, how does the “protein prenylation and synthesis of radiolabelled dye-front compounds” value ([4]; 750 μM) read?
**A.** Its value is “did not affect”.

**Q.** What about the “reduction in viability of J774 cells” value ([5]; 750 μM) of the same compound?
**A.** Its value is “substantial reduction”.

**Q.** For CC[C@H](C)C(=O)O[C@H]1CCC=C2C=C[C@H](C)[C@H](CC[C@@H]3C[C@@H](O)CC(=O)O3)[C@H]21 [mevastatin], which “geranylgeranylated form of Rab6 after immunoprecipitation” value ([2]; 11 μM) is on record?
**A.** The value was “barely detectable”.

**Q.** And the “proportion of J774 cells with features typical of apoptosis” value [7]?
**A.** The value was “dose-dependent increase”.

**Q.** What about the “loss of cell viability with cycloheximide co-incubation” value ([5]; 15 μM mevastatin + 0.5 μM cycloheximide, 48 h) of the same compound?
**A.** Its value is “could be prevented”.

**Q.** What about the IC50 ([5]; J774 cells, after 48 h) of the same compound?
**A.** Its IC50 is about 10000 nM.

**Q.** What about the “loss of cell viability and apoptosis with FPP, GGPP or mevalonic acid lactone co-incubation” value ([5]; mevastatin + 200 μM FPP, GGPP or mevalonic acid lactone) of the same compound?
**A.** The value was “prevented (at least partially)”.

**Q.** And the “farnesylated form of Ras after immunoprecipitation” value ([6]; 15 μM)?
**A.** Its value is “Identical results”.
